The assay concerns HCC827 NSCLC cells. In words: FACS phagocytosis assay of TAMRA-SE labeled HCC827 cells with or without bafilomycin. The format is cell-based. Conditions: 20 nM added to co-culture. The text has this:
FIGS. 73A-73B show ablation of CER-induced phagocytosis by bafilomycin, an inhibitor of phagolysosome V-ATPase. CER104-modified CD4+ T cells and mock transduced CD4+ T cells (control) were co-cultured with HCC827 cells that were labeled with TAMRA-SE fluorescent dye and treated with osimertinib. Phagocytosis was quantified by FACs.
T cells were transduced with lentiviral vector comprising hCER104 nucleic acid as described in Example 6. hCER104 modified T cells were co-cultured with HCC827 adenocarcinoma cells with or without osimertinib. […] FACs plots from in vitro phagocytosis assays in hCER104 modified T cells or mock transduced control T cells are shown in FIG. 73B.

Turning to `CO/C1=C\C(C)=C\[C@@H](C)[C@@H](O)[C@@H](C)C/C(C)=C/C=C/[C@H](OC)[C@@H]([C@@H](C)[C@@H](O)[C@H](C)[C@@]2(O)C[C@@H](O)[C@H](C)[C@@H](C(C)C)O2)OC1=O` [bafilomycin, reference compound], the “effect on uptake of labeled HCC827 cells by hCER104 modified T cells” value is “blocked uptake”.

For the origin of these results see US12303551B2, “Cellular immunotherapy compositions and uses thereof” (CERO THERPEUTICS HOLDINGS, INC., priority 2018, dated 2025).
